The values below come from publication PMC9031459, “Experimental Comparison of Primary and hiPS-Based In Vitro Blood–Brain Barrier Models for Pharmacological Research” (Pharmaceutics, 2022).

As usually defined, the Papp is a coefficient for how fast a substance crosses the barrier.

A short description of data set [1]: Permeability/transport across hiPS-BCEC barrier in microfluidic Quasi Vivo QV600 setup. Particulars: human, not told.
Experimental: (§6) The microfluidic studies were performed using the commercial Quasi Vivo® QV600 system ([…] ., York, UK). […] On day 10, when the barrier has been established, the membrane containing the blood-brain barrier was inserted into the QV 600 chamber. The apical channel was filled with enriched endothelial medium (heSFM with 5% […] added to the basolateral channel. A fluidic flow with a flow rate of 200 μL min^-1 was established and experiments were performed for up to 4 days. […] For comparison, samples in the static setting were collected at the same time points with a separate insert for each time point. […] Standard dilutions of sample media were used for quantification and sample media from cell wells without sodium fluorescence application were used for background subtraction. All measurements were performed in duplex at least. […] Samples were collected from both the apical and basolateral circuits, filtered using Whatman Mini-UniPrepTM filters (VWR International, […] , Germany) and caffeine concentrations measured using HPLC. […] At a flow rate of 0.4 mL min^-1, 5 μL of sample was injected and separated at a column temperature of 60 °C.
For data set [2], the system named is hiPS-BCECs. The data set is described as above. Particulars: fluidic system; for caffeine concentration, basolateral side: 100 µM caffeine apical.
Experimental: as §6
The test system of data set [3] is co-culture model of human hiPS-BCECs and rat glial cells. The arrangement: method as in PMID 31690750. As to conditions: literature value ref 24; cited from earlier work.
A short description of data set [4]: Permeability/transport across hiPS-derived BCEC monolayer on membrane inserts (static). Particulars: human. The method, then: (§1) The stem cell line UKKi011-A was differentiated according to the protocol published by Stebbins et al. with slight modifications (Figure 2B). Cells were seeded at a density of 5 × 10^3 cells cm^−2 on Matrigel-coated (Corning, Amsterdam, The Netherlands) 6-well plates and cultivated for 3 days in mTeSR1 medium (Stem Cell Technologies, Vancouver, BC, Canada) before initiating the differentiation. On day 0, the mTeSR1 medium was switched to unconditioned medium (DMEM/F12 with 20% knock-out serum replacement, 1% non-essential amino acids, 0.5% GlutaMAX and […] 2-mercaptoethanol) and medium was exchanged daily for 5 days. On day 6, the medium was changed to endothelial medium with growth factors (heSFM with 1% platelet-poor plasma-derived human serum (PDS; SigmaAldrich, Taufkirchen, Germany), 20 ng mL^−1 bFGF (R&D Systems, Minneapolis, MN, USA) and 10 µM retinoic acid (SigmaAldrich, Taufkirchen, Germany)). On day 8, cells were dissociated with Accutase for 25 min at 37 °C and seeded at a density of 1 × 10^6 cells cm^−2 in endothelial medium with growth factors. Cells were seeded onto membrane inserts with 3.0 µm pore size (VWR International, Darmstadt, Germany) and coated with 400 µg mL^−1 human collagen IV (SigmaAldrich, Taufkirchen, Germany) and 100 µg mL^−1 fibronectin (SigmaAldrich, Taufkirchen, Germany) in 0.05% acetic acid. The medium was changed 24 h after seeding to either endothelial medium without growth factors (heSFM with 1% PDS) or enriched endothelial medium (heSFM with 5% PDS) on the apical side and heSFM on the basolateral side. Experiments were performed on day 10 or 11.
(§2) The substances of interest were added to the apical side of the membranes, incubated for 3 h at 37 °C, 5% CO2 and 90% relative humidity, and then the samples were collected from the apical and basolateral compartment for measurement. In the microfluidic setup, sodium fluorescein and caffeine (SigmaAldrich, Taufkirchen, Germany) were added to the apical channel and samples were collected 4, 24, 48 (only caffeine) and 72 h after application from both fluidic channels.
(§3) Sodium fluorescein was added to a final concentration of 1 µg mL^−1, the samples were transferred to black 96-well plates and fluorescence was measured at an excitation of 485 nm and emission of 535 nm with a Tecan infinite 200 plate reader (Tecan Group Ltd., Männedorf, Switzerland).
(§4) After incubation, the apical and basolateral medium were collected separately, transferred to plastic vials containing 5 mL Ultima Gold scintillation liquid (Perkin Elmer, Waltham, MA, USA) and radioactive decay was measured with a Tri-Carb 2910TR Scintillation counter (Perkin Elmer, Waltham, MA, USA).
(§5) Caffeine was added to a final concentration of 100 µM to the apical circuit. […] Detection was achieved using a Diode-Array-Detector (DAD) at a wavelength of 275 nm.

Data set [5] deals with hiPS-BCECs. Described as above. Particulars: for caffeine concentration, basolateral side / caffeine concentration, apical side: Figure 8B (static system), 100 µM caffeine apical; for permeability coefficient: hiPS-BCECs. The protocol: as §1, §2, §3, §4, §5
The next data set concerns pBCECs. Briefly: Permeability across primary porcine BCEC monolayer on Transwell inserts (static). It counts as in vitro ADME, Sus scrofa domestica. As to conditions: 3 h incubation. The protocol:
The substances of interest were added to the apical side of the membranes, incubated for 3 h at 37 °C, 5% CO2 and 90% relative humidity, and then the samples were collected from the apical and basolateral compartment for measurement.

Where [6] appears, read: static, established protocol / equal serum distribution (1% PDS both sides), apical application, 3 h incubation.
Setting [7] is: static, serum only in apical medium (5% PDS apical, serum-free basolateral), 3 h incubation.

As for `Cn1c(=O)c2c(ncn2C)n(C)c1=O` [caffeine], the Papp at 100 µM amounted to 30.4 ×10⁻⁶ cm/s in data set [1] and 9 ×10⁻⁶ cm/s in data set [4]. Further, the “caffeine concentration, basolateral side” value came out at 5.91 ± 3.36 µM in the data set on hiPS-BCECs [2] (4 h); 14.85 ± 3.50 µM in the data set with hiPS-BCECs [2] (24 h); 17.08 ± 4.44 µM in the data set on hiPS-BCECs [2] (48 h); 17.72 ± 3.34 µM in the data set with hiPS-BCECs [2] (72 h); 24.46 ± 1.90 µM in the data set with hiPS-BCECs [5] (4 h); 36.19 ± 3.18 µM with hiPS-BCECs [5] (24 h). In the data set with hiPS-BCECs [5] (48 h), the “caffeine concentration, basolateral side” value was determined as 37.97 ± 2.88 µM. In addition, the “permeability coefficient, literature value” in data set [3] is on record as 3.1 × 10^–5 cm s^−1. Further, the “caffeine concentration, apical side” value in the data set with hiPS-BCECs [5] (24 h) came to 36.30 ± 2.71 µM; in the data set with hiPS-BCECs [5] (48 h), 37.74 ± 3.02 µM.
`O=C([O-])c1ccccc1-c1c2ccc(=O)cc-2oc2cc([O-])ccc12.[Na+].[Na+]` [sodium fluorescein]: the permeability coefficient was 2.75 × 10^–6 ± 1.61 × 10^–6 cm s^−1 in the data set with hiPS-BCECs [2] (hiPS-BCECs, flow 200 µL min^−1, 5% PDS apical, serum-free basolateral); 0.62 ×10⁻⁶ cm/s with pBCECs (5% FCS apical, serum-free basolateral); 1.85 ×10⁻⁶ cm/s with pBCECs (established protocol (serum-free medium on both sides), apical application); 0.81 × 10^–6 ± 0.82 × 10^–7 cm s^−1 in the data set with hiPS-BCECs [5] (static system compared with fluidic, 5% PDS apical, serum-free basolateral); 1.41e-06 cm/s in the data set with hiPS-BCECs [5] (setting [6]); 8e-07 cm/s with hiPS-BCECs [5] (setting [7]).
Regarding inulin [[14C]-inulin], the values for the permeability coefficient in the data set on hiPS-BCECs [5] (setting [6]) and in the data set on hiPS-BCECs [5] (setting [7]) were 3.19e-06 cm/s and 8.9e-07 cm/s, respectively.
